Data on five molecules can be found in article PMC4450297, “Screening Active Compounds from Garcinia Species Native to China Reveals Novel Compounds Targeting the STAT/JAK Signaling Pathway” (BioMed Research International, 2015).

Where two headings read alike, the source gives them in different places.

One assay concerns BT-549. Kind of assay: Cell panel screen (CellTiter-Glo). The class given is cell-based, human. The conditions noted are these: Homo sapiens, read-out: Percent Inhibition. The gist of the method: (§1)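 ATCC lines in supplier media with 10% FBS, seeded and cultured overnight at 37° C., then exposed to compound at 20 μM final for 72 h. CellTiter-Glo luminescence; % growth inhibition relative to DMSO-treated controls after subtracting cell-free background.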
In general terms: In ATP-based viability assays light output follows the ATP content of the culture.

The subject of another assay is HCC1569. Briefly: Cell panel screen (CellTiter-Glo). The conditions noted are these: Homo sapiens, read-out: Percent Inhibition. The class given is cell-based, human. The gist of the method: as §1
Another assay deals with NCI-H1694. Kind of assay: Cell panel screen (CellTiter-Glo). Format: cell-based, human. The conditions noted are these: Homo sapiens, read-out: Percent Inhibition. The gist of the method: as §1
Another assay has as its system M059J. Briefly: Cell panel screen (CellTiter-Glo). The conditions noted are these: Homo sapiens, read-out: Percent Inhibition. The class given is cell-based, human. The method, boiled down: as §1
A further assay has as its system ChaGo-K-1. Briefly: Cell panel screen (CellTiter-Glo). The conditions noted are these: Homo sapiens, read-out: Percent Inhibition. Format: cell-based, human. The method, boiled down:
as §1

The subject of another assay is HT-1197. Kind of assay: Cell panel screen (CellTiter-Glo). The class given is cell-based, human. The conditions noted are these: Homo sapiens, read-out: Percent Inhibition. The method, boiled down:
as §1

Another assay deals with RL95. Briefly: Cell panel screen (CellTiter-Glo). Format: cell-based, human. The conditions noted are these: Homo sapiens, read-out: Percent Inhibition. The gist of the method:
as §1

The next assay deals with T1, JAK2 (Homo sapiens, UniProt O60674).
T1 construct: purchased Carna Bioscience, Inc. (Japan)
Kind of assay: Microfluidic mobility shift enzyme assay. The class given is biochemical. The procedure: (§2) The microfluidic mobility shift enzyme assay was performed in an on-chip incubation mode on a Caliper LabChip 2000 Drug Discovery System (Caliper Life Sciences, Hopkinton, MA). The extent of inhibition by the compounds is measured directly by quantifying the level of both unphosphorylated peptide substrate and phosphorylated product after electrophoretic separation using Caliper's LabChip assay technology. To evaluate the compounds for their target and the mechanism by which the compound affects JAK enzyme activity, the compounds were tested against JAK family kinases (JAK1, JAK2, JAK3, and Tyk2) with the Caliper microfluidic mobility-shift platform. The JAK family kinase enzymes and the FAM-labeled substrates were purchased from Carna Bioscience, Inc. (Japan) and Caliper Bioscience (US), respectively.
(§3) For JAK kinase activity measurement, the test compounds were diluted freshly with assay buffer (100 mM HEP ES, 10 mM MgCl2, 1.5 mM betaine, 0.015% Brij, and 25 mM β-glycerophosphate) and added to 384-well plates. FAM-labeled peptide substrate and ATP in assay buffer were added to the wells. After that, JAK enzymes prepared in assay buffer were also added to the wells and mixed to start the reaction. After a period of incubation at room temperature, the reaction was stopped by stop solution (500 mM EDTA). Finally, the plate was put on a Caliper LabChip 2000 system and a droplet of the reaction mixture was applied for electrophoretic separation in the chips of the machine. The enzyme conversion data then was read out for analysis.

A further assay has as its target T2, Tyk2 (Homo sapiens, UniProt P29597).
T2 construct: purchased Carna Bioscience, Inc. (Japan)
Kind of assay: Microfluidic mobility shift enzyme assay. Format: biochemical. Here is the method: as §2, §3

In another assay the target is T3, JAK1 (Homo sapiens, UniProt P23458).
T3 construct: purchased Carna Bioscience, Inc. (Japan)
Briefly: Microfluidic mobility shift enzyme assay. The class given is biochemical. Here is the method: as §2, §3

Another assay deals with T4, JAK3 (Homo sapiens, UniProt P52333).
T4 construct: purchased Carna Bioscience, Inc. (Japan)
T4 sequence (P52333 1-1124): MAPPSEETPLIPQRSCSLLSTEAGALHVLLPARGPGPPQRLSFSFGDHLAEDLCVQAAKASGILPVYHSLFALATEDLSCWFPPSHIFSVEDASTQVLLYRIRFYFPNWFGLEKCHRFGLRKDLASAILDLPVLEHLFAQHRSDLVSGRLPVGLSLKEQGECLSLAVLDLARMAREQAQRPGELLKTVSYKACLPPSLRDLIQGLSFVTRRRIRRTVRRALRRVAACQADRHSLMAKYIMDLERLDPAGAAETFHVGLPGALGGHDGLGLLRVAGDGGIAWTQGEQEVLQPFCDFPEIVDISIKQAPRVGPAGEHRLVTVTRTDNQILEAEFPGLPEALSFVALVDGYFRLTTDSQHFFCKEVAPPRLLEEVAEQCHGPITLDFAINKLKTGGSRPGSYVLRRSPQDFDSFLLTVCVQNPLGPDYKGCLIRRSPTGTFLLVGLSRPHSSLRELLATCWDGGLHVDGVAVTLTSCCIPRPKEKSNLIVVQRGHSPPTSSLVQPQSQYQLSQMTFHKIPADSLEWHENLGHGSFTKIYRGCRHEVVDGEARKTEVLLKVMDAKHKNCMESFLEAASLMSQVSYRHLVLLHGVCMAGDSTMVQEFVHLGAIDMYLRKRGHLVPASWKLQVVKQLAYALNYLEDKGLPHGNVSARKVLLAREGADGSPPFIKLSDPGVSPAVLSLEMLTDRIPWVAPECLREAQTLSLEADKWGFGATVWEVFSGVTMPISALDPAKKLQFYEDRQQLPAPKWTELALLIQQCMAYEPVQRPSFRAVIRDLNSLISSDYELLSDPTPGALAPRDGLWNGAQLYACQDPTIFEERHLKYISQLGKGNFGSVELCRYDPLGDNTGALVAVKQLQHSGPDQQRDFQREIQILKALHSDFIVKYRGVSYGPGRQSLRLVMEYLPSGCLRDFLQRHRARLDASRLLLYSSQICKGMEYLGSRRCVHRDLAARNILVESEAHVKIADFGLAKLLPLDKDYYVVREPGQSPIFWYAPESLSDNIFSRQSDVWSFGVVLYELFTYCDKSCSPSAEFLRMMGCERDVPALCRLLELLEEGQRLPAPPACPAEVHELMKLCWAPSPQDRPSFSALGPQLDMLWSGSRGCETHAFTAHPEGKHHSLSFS
Kind of assay: Microfluidic mobility shift enzyme assay. The class given is biochemical. Here is the method: as §2, §3

Where [1] appears, read: BT-549 (Breast), 20 micromolar, 72 hrs.
[2] abbreviates: HCC1569 (Breast), 20 micromolar, 72 hrs.
The mark [3] stands for this setting: NCI-H1694 (Lung), 20 micromolar, 72 hrs.
Where [4] appears, read: M059J (Brain), 20 micromolar, 72 hrs.
The mark [5] stands for this setting: ChaGo-K-1 (Lung), 20 micromolar, 72 hrs.
Setting [6] is: HT1197, HT-1197 (Urinary bladder), 20 micromolar, 72 hrs.
Where [7] appears, read: RL95 (Uterus), 20 micromolar, 72 hrs.

T1 sequence (O60674 whole entry): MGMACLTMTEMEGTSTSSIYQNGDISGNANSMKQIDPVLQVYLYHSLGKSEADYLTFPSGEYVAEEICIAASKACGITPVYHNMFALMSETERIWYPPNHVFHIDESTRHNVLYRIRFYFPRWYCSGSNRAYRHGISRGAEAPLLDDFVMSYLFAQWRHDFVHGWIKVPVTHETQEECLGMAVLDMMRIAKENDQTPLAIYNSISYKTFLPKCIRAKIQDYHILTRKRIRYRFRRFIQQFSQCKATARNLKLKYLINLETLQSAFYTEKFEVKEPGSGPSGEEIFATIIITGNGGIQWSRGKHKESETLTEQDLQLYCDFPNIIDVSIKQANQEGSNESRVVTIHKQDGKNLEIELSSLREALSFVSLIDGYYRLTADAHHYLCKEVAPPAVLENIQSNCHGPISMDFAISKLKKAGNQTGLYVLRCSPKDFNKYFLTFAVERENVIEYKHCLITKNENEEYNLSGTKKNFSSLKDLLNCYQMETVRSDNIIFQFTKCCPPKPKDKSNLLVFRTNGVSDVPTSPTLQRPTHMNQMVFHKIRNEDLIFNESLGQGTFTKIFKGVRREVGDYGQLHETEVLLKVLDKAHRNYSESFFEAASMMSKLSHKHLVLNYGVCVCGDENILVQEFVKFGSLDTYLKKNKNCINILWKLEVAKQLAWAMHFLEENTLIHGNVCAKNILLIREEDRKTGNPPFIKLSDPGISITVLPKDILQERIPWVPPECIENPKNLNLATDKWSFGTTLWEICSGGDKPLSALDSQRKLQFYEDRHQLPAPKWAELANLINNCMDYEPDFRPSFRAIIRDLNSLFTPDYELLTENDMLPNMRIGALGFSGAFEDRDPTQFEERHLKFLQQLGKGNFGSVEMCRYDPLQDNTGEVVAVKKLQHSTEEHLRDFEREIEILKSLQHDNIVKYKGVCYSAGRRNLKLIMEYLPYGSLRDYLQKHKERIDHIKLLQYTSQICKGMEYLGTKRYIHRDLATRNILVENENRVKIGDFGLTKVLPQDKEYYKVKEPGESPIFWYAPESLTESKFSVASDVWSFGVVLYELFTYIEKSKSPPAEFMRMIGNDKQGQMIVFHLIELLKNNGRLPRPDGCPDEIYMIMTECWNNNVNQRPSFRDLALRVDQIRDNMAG
T2 sequence (P29597 whole entry): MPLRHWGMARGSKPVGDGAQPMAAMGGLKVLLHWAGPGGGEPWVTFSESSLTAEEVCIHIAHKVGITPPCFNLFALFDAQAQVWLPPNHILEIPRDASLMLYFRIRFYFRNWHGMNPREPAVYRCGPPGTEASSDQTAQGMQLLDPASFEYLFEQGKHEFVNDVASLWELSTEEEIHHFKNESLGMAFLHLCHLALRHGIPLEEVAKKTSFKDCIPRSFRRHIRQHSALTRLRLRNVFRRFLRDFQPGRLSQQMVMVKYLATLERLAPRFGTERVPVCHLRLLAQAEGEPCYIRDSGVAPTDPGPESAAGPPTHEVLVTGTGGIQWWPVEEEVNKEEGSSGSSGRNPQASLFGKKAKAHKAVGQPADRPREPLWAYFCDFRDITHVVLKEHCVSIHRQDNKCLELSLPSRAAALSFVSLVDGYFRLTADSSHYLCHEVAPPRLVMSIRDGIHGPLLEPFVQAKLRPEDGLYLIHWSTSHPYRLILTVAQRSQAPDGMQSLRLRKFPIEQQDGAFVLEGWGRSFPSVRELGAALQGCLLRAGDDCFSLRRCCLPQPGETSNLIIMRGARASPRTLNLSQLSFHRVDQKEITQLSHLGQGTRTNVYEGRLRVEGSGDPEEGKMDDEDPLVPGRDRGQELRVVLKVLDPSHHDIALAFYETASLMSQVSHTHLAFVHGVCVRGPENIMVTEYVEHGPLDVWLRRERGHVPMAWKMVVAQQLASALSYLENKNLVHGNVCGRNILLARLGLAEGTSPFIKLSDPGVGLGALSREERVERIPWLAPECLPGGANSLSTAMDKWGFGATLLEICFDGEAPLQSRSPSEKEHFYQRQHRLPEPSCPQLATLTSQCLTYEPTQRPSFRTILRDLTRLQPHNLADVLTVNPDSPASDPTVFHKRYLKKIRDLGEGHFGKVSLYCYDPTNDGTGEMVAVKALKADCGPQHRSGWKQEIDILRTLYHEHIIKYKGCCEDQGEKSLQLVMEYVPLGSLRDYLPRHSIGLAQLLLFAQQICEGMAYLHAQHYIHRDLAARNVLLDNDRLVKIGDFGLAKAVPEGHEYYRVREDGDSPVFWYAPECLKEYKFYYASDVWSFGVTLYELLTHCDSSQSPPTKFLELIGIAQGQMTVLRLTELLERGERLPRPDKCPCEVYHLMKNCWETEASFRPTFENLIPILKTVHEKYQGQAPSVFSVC
T3 sequence (P23458 whole entry): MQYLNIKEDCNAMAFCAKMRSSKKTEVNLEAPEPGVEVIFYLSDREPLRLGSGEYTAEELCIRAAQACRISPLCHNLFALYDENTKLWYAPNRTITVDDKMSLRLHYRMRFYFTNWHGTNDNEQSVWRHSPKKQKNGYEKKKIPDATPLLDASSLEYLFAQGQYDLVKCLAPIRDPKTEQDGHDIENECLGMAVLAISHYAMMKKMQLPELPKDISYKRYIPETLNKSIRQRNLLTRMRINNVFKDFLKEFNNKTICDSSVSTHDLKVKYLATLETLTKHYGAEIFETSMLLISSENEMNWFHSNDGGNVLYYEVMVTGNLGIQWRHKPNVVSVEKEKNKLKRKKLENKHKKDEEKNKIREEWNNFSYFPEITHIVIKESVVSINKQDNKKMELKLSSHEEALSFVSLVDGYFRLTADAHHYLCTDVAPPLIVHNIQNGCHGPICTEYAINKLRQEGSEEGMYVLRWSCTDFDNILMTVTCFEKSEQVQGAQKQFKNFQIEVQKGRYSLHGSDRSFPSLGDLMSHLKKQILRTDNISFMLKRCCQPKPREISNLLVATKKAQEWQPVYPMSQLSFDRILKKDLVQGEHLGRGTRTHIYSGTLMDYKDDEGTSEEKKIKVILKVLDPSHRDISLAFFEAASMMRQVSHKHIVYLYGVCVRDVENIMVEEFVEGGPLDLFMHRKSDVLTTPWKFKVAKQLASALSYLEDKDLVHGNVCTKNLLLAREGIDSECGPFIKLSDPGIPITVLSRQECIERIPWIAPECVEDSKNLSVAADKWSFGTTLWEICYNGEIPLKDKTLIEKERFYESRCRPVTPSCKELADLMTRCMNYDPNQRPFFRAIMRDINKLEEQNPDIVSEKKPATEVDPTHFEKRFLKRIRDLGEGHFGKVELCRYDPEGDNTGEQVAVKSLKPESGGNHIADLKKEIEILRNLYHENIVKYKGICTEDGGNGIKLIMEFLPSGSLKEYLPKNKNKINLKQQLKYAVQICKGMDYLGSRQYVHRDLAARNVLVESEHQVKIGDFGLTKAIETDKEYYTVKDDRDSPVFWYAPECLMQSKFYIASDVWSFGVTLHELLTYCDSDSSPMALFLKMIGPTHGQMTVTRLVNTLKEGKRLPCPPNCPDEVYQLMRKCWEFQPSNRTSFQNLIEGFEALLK

In the case of `CC(C)=CCC/C(C)=C/Cc1c(O)c(CC=C(C)C)c2c(c1O)C(=O)C1=C[C@@H]3C[C@H]4C(C)(C)O[C@@](C/C=C(\C)C=O)(C3=O)[C@@]14O2` [GB49], the inhibition at 20 µM in the assay on BT-549 (setting [1]) stood at 99%; with HCC1569 (setting [2]), 99%; in the assay with NCI-H1694 (setting [3]), 100%; with M059J (setting [4]), 99%; in the assay with ChaGo-K-1 (setting [5]) it was 99%; in the assay on HT-1197 (setting [6]), 96%. Moreover, the inhibition at 20 µM with RL95 (setting [7]) was determined as 99%.
As for `CC(C)=CCC[C@@]1(C)C=Cc2c(O)c3c(c(C/C=C(\C)CO)c2O1)O[C@]12C(=C[C@@H]4C[C@H]1C(C)(C)O[C@@]2(C/C=C(/C)C(=O)O)C4=O)C3=O` [GB40, 35-hydroxyepigambogic acid], the inhibition at 20 µM with BT-549 (setting [1]) amounted to 99%; in the assay with HCC1569 (setting [2]), 99%; in the assay with NCI-H1694 (setting [3]), 99%; with M059J (setting [4]), 99%; with ChaGo-K-1 (setting [5]), 98%; in the assay on HT-1197 (setting [6]), 99%. The inhibition at 20 µM in the assay with RL95 (setting [7]) worked out at 99%. Also, the “difference in IC50s between JAK2 and Tyk2” value on JAK2 turned out to be 10 fold. The “inhibition of JAK2 kinase activity (in words)” value on JAK2 is “significantly inhibited”. In addition, the IC50 came to 1.4 ± 0.1 µM at JAK2 (JAK2 enzyme, read-out: IC50); 12.9 ± 0.9 µM at Tyk2 (Tyk2 enzyme, read-out: IC50); 14.2 ± 0.4 µM on JAK1 (JAK1 enzyme, read-out: IC50); 3.2 ± 0.2 µM on JAK3 (JAK3 enzyme, read-out: IC50). Also, on Tyk2, the “inhibition of Tyk2 kinase activity (in words)” value is on record as “minor inhibitory effects”. Besides, the “inhibition of JAK1 kinase activity (in words)” value on JAK1 was “minor inhibitory effects”. In addition, the “inhibition of JAK3 kinase activity (in words)” value on JAK3 is “significantly inhibited”.
For the molecule `CC(C)=CCC/C(C)=C/Cc1c(O)c(CC=C(C)C)c2c(c1O)C(=O)C1=C[C@@H]3C[C@H]4C(C)(C)O[C@@](CC=C(C)C)(C3=O)[C@@]14O2` [GB32], the inhibition at 20 µM in the assay with BT-549 (BT-549, 72 h) was 99%; in the assay with HCC1569 (HCC1569, 72 h), 99%; in the assay with NCI-H1694 (NCI-H1694, 72 h), 100%; in the assay with M059J (M059J, 72 h) it was 99%; in the assay with ChaGo-K-1 (ChaGo-K-1, 72 h) it was 99%; with HT-1197 (HT1197, 72 h), 99%. In addition, in the assay on RL95 (72 h), the inhibition at 20 µM stood at 99%. Besides, the “inhibition of JAK2 kinase activity (in words)” value on JAK2 is “minor inhibition”. Moreover, the concentration for half-maximal inhibition (IC50) was 37.3 ± 6.9 µM at JAK2 (IC50, JAK2 enzyme); more than 40 µM on Tyk2; more than 40 µM on JAK1; 17.5 ± 1.5 µM at JAK3 (IC50, JAK3 enzyme). The “inhibition of Tyk2 kinase activity (in words)” value on Tyk2 is listed as “no effect”. Also, on JAK1, the “inhibition of JAK1 kinase activity (in words)” value is recorded as “no effect”. In addition, the “inhibition of JAK3 kinase activity (in words)” value on JAK3 is listed as “minor inhibition”.
Turning to `CC(C)=CCC[C@@]1(C)C=Cc2c(O)c3c(c(CCC(C)(C)O)c2O1)O[C@]12C(=C[C@@H]4C[C@H]1C(C)(C)O[C@@]2(C/C=C(/C)C(=O)O)C4=O)C3=O` [GB39, 33-hydroxyepigambogic acid], the inhibition at 20 µM in the assay with BT-549 (setting [1]), in the assay on HCC1569 (setting [2]), in the assay on NCI-H1694 (setting [3]), in the assay on M059J (setting [4]), in the assay on ChaGo-K-1 (setting [5]) and in the assay with HT-1197 (setting [6]) was 100% each time. In addition, the inhibition at 20 µM with RL95 (setting [7]) amounted to 100%. At JAK2, the “difference in IC50s between JAK2 and Tyk2” value worked out at 10 fold. For the same molecule, the “inhibition of JAK2 kinase activity (in words)” value at JAK2 is recorded as “significantly inhibited”. The IC50 on JAK2 (JAK2 enzyme, read-out: IC50) was found to be 1.7 ± 0.1 µM; at Tyk2 (Tyk2 enzyme, read-out: IC50), 13 ± 1.6 µM; at JAK1 (JAK1 enzyme, read-out: IC50), 12.2 ± 0.3 µM; on JAK3 (JAK3 enzyme, read-out: IC50), 3.8 ± 0.3 µM. Moreover, the “inhibition of Tyk2 kinase activity (in words)” value at Tyk2 was “minor inhibitory effects”. At JAK1, the “inhibition of JAK1 kinase activity (in words)” value is given as “minor inhibitory effects”. In addition, at JAK3, the “inhibition of JAK3 kinase activity (in words)” value is reported as “significantly inhibited”.
In the case of `CC(C)=CCC/C(C)=C/Cc1c(O)c(CC=C(C)C)c2c(c1O)C(=O)C1=C[C@@H]3C[C@H]4C(C)(C)O[C@@](C/C=C(\C)C(=O)O)(C3=O)[C@@]14O2` [GB63], the inhibition at 20 µM was 99% in the assay on BT-549 (setting [1]); 99% with HCC1569 (setting [2]); 100% in the assay with NCI-H1694 (setting [3]); 99% with M059J (setting [4]); 100% in the assay on ChaGo-K-1 (setting [5]); 99% in the assay with HT-1197 (setting [6]). Also, in the assay on RL95 (setting [7]), the inhibition at 20 µM came to 99%.

The inhibition is the relative decrease from the control value, in per cent. By IC50 is commonly meant the midpoint of a concentration-inhibition curve.
